Results reported in patent US12606541B2, “PPARg modulators and methods of use” (Eisai R&D Management Co., Ltd., priority 2020, dated 2026).
Where two headings read alike, the source gives them in different places.

Tests used:
His6-TEV-PPARγ-(234-505) = biological target: T1, His6-TEV-PPARγ-(234-505) (Homo sapiens, UniProt P37231); assay: TR-FRET Assay to Measure Co-R Peptide Recruitment to PPARγ; assay type: biochemical; conditions: Co-R peptide (SMRT-ID2) recruitment; top final concentration 20 μM; read-out: TR-FRET i-Ag; AC50
T1 construct: The His6-TEV-PPARγ-(234-505) protein for assay was expressed and purified; TEV cleavage site (N); made in house
T1 sequence (P37231 234-505): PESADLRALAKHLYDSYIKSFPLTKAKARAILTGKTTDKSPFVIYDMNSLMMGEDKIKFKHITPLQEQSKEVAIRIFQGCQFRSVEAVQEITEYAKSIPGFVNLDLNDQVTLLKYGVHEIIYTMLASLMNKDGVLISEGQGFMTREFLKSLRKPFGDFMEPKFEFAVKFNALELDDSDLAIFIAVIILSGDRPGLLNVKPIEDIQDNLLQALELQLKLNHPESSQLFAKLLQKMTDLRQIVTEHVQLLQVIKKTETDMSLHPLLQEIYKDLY
Summary of the method: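 His-tagged PPARγ (or controls) was preincubated with compound for 20 minutes at room temperature, then 5 nM anti-His terbium antibody and 200 nM FITC-labeled SMRT-ID2 corepressor peptide (final) were added for a further hour. TR-FRET signal was normalized to percent response using 500 nM T0070907 and DMSO controls.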

UM-UC-9 engineered cells = assay: Cell proliferation / short-term viability assay, CellTiter-Glo 144 h; assay type: cell-based, human; conditions: read-out: CTGlo 144 h UMUC9.5, G150
Summary of the method: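 UM-UC-9 engineered assay-ready cells seeded at 500 cells/well in high-glucose DMEM/10% FBS, treated from dose-response plates, grown at 37° C, 5% CO2. CellTiter-Glo 2.0 luminescence read on day 7, with a day-0 pretreatment plate as T0 reference and DMSO wells as negative control.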

`COc1cc(-c2cc(C(=O)N3CC[C@H](C(=O)NCc4sc(C)nc4C(F)(F)F)CC34CC4)[nH]n2)c(F)cn1` [Example 517, (S)-4-(3-(5-fluoro-2-methoxypyridin-4-yl)-1H-pyrazole-5-carbonyl)-N-((2-methyl-4-(trifluoromethyl)thiazol-5-yl)methyl)-4-azaspiro[2.5]octane-7-carboxamide] showed an AC50 (His6-TEV-PPARγ-(234-505)) of 7.9 nM and an IC50 (UM-UC-9 engineered cells; Homo sapiens, UM-UC-9, 144 h) of 20.3 nM.
In the case of `COc1cc(-c2cc(C(=O)N3CC[C@H](C(=O)NCc4nccn4C(F)(F)F)CC34CC4)[nH]n2)c(F)cn1` [Example 519, (S)-4-(3-(5-fluoro-2-methoxypyridin-4-yl)-1H-pyrazole-5-carbonyl)-N-((1-(trifluoromethyl)-H-imidazol-2-yl)methy)-4-azaspiro[2.5]octane-7-carboxamide], the AC50 (His6-TEV-PPARγ-(234-505)) is reported as 4.3 nM and the IC50 (UM-UC-9 engineered cells; Homo sapiens, UM-UC-9, 144 h) is reported as 19.1 nM.
`COc1cc(-c2cc(C(=O)N3CC[C@H](C(=O)NC45COC(CO)(C4)C5)CC34CC4)n[nH]2)c(F)cn1` [Example 520, (S)-4-(5-(5-fluoro-2-methoxypyridin-4-yl)-1H-pyrazole-3-carbonyl)-N-(1-(hydroxymethyl)-2-oxabicyclo[2.1.1]hexan-4-yl)-4-azaspiro[2,5]octane-7-carboxamide] was tested, and the AC50 (His6-TEV-PPARγ-(234-505)) was 784 nM and the IC50 (UM-UC-9 engineered cells; Homo sapiens, UM-UC-9, 144 h) was over 10000 nM.
Work on `COc1cc(-c2cc(C(=O)N3CC[C@H](C(=O)NCc4ncc(N5CCN(C)CC5)cc4Cl)CC34CC4)n[nH]2)c(F)cn1` [Example 521, (S)—N-((3-chloro-5-(4-methylpiperazin-1-yl)pyridin-2-yl)methyl)-4-(5-(5-fluoro-2-methoxypyridin-4-yl)-1H-pyrazole-3-carbonyl)-4-azaspiro[2.5]octane-7-carboxamide] yielded an AC50 (His6-TEV-PPARγ-(234-505)) of 1.8 nM and an IC50 (UM-UC-9 engineered cells; Homo sapiens, UM-UC-9, 144 h) of 19.8 nM.
`COc1cc(-c2cc(C(=O)N3CC[C@H](C(=O)NCc4ccc5c(c4)B(O)OC5(C)C)CC34CC4)[nH]n2)c(F)cn1` [Example 522, (S)-4-(3-(5-fluoro-2-methoxypyridin-4-yl)-1H-pyrazole-5-carbonyl)-N-((1-hydroxy-3,3-dimethyl-1,3-dihydrobenzo[c][1,2]oxaborol-6-yl)methyl)-4-azaspiro[2.5]octane-7-carboxamide] was tested, and the AC50 (His6-TEV-PPARγ-(234-505)) was 1.4 nM and the IC50 (UM-UC-9 engineered cells; Homo sapiens, UM-UC-9, 144 h) was 14.3 nM.
Work on `COc1cc(-c2cc(C(=O)N3CC[C@H](C(=O)Nc4ccc5c(c4)COB5O)CC34CC4)[nH]n2)c(F)cn1` [Example 523, (S)-4-(3-(5-fluoro-2-methoxypyridin-4-yl)-1H-pyrazole-5-carbonyl)-N-(1-hydroxy-1,3-dihydrobenzo[c][1,2]oxaborol-5-yl)-4-azaspiro[2.5]octane-7-carboxamide] yielded an AC50 (His6-TEV-PPARγ-(234-505)) of 5.3 nM and an IC50 (UM-UC-9 engineered cells; Homo sapiens, UM-UC-9, 144 h) of 54.3 nM.
`COc1cc(-c2cc(C(=O)N3CC[C@H](C(=O)NCc4ccncc4C(F)(F)F)CC34CC4)[nH]n2)c(F)cn1` [Example 525, (S)-4-(3-(5-fluoro-2-methoxypyridin-4-yl)-1H-pyrazole-5-carbonyl)-N-((3-(trifluoromethyl)pyridin-4-yl)methyl)-4-azaspiro[2.5]octane-7-carboxamide] showed an AC50 (His6-TEV-PPARγ-(234-505)) of 7 nM and an IC50 (UM-UC-9 engineered cells; Homo sapiens, UM-UC-9, 144 h) of 19 nM.
In the case of `COc1cc(-c2cc(C(=O)N3CC[C@H](C(=O)NCc4c(C(F)(F)F)nn(C)c4Cl)CC34CC4)[nH]n2)c(F)cn1` [Example 526, (S)—N-((5-chloro-1-methyl-3-(trifluoromethyl)-1H-pyrazol-4-yl)methyl)-4-(3-(5-fluoro-2-methoxypyridin-4-yl)-1H-pyrazole-5-carbonyl)-4-azaspiro[2.5]octane-7-carboxamide], the AC50 (His6-TEV-PPARγ-(234-505)) is reported as 3.7 nM and the IC50 (UM-UC-9 engineered cells; Homo sapiens, UM-UC-9, 144 h) is reported as 7.1 nM.
For “(1R,3S,5S)-8-[5-(5-fluoro-2-methoxypyridin-4-yl)-1H-pyrazole-3-carbonyl]-N-[(1r,4r)-4-(2-methoxyethoxy)-4-(trifluoromethyl)cyclohexyl]-8-azabicyclo[3.2.1]octane-3-carboxamide and (1R,3S,5S)-8-[5-(5-fluoro-2-methoxypyridin-4-yl)-1H-pyrazole-3-carbonyl]-N-[(1s,4s)-4-(2-methoxyethoxy)-4-(trifluoromethyl)cyclohexyl]-8-azabicyclo[3.2.1]octane-3-carboxamide [Example 304]”, the AC50 (His6-TEV-PPARγ-(234-505)) was 44.4 nM and the IC50 (UM-UC-9 engineered cells) was 201 nM.
Work on “(1R,3s,5S)-8-(5-(5-fluoro-2-methoxypyridin-4-yl)-1H-pyrazole-3-carbonyl)-N—((R)-1-(3-(trifluoromethyl)-1,2,4-oxadiazol-5-yl)ethyl)-8-azabicyclo[3.2.1]octane-3-carboxamide and (1R,3s,5S)-8-(5-(5-fluoro-2-methoxypyridin-4-yl)-1H-pyrazole-3-carbonyl)-N—(S)-1-(3-(trifluoromethyl)-1,2,4-oxadiazol-5-yl)ethyl)-8-azabicyclo[3.2.1]octane-3-carboxamide [Example 290]” yielded an AC50 (His6-TEV-PPARγ-(234-505)) of 400 nM and an IC50 (UM-UC-9 engineered cells) of 833 nM.
Work on “(1R,3s,5S)—N-(3-chlorobenzyl)-8-(5-(5-fluoro-2-methoxypyridin-4-yl)-1H-pyrazole-3-carbonyl)-8-azabicyclo[3.2.1]octane-3-carboxamide and (1R,3r,5S)—N-(3-chlorobenzyl)-8-(5-(5-fluoro-2-methoxypyridin-4-yl)-1H-pyrazole-3-carbonyl)-8-azabicyclo[3.2.1]octane-3-carboxamide [Example 160]” yielded an AC50 (His6-TEV-PPARγ-(234-505)) of 11.6 nM and an IC50 (UM-UC-9 engineered cells) of 20.6 nM.
“(1R,3s,5S)—N-((1r,4R)-4-ethoxy-4-(trifluoromethyl)cyclohexyl)-8-(5-(5-fluoro-2-methoxypyridin-4-yl)-1H-pyrazole-3-carbonyl)-8-azabicyclo[3.2.1]octane-3-carboxamide and (1R,3s,5S)—N-((1s,4S)-4-ethoxy-4-(trifluoromethyl)cyclohexyl)-8-(5-(5-fluoro-2-methoxypyridin-4-yl)-1H-pyrazole-3-carbonyl)-8-azabicyclo[3.2.1]octane-3-carboxamide [Example 303]” showed an AC50 (His6-TEV-PPARγ-(234-505)) of 7.3 nM and an IC50 (UM-UC-9 engineered cells) of 41.5 nM.
“(2S,4R)-1-(5-(5-fluoro-2-methoxypyridin-4-yl)-1H-pyrazole-3-carbonyl)-N-((1r,4R)-4-hydroxy-4-(trifluoromethyl)cyclohexyl)-2-(trifluoromethyl)piperidine-4-carboxamide and (2S,4S)-1-(5-(5-fluoro-2-methoxypyridin-4-yl)-1H-pyrazole-3-carbonyl)-N-((1r,4S)-4-hydroxy-4-(trifluoromethyl)cyclohexyl)-2-(trifluoromethyl)piperidine-4-carboxamide [Example 367]” showed an AC50 (His6-TEV-PPARγ-(234-505)) of 22 nM and an IC50 (UM-UC-9 engineered cells) of 12 nM.
In the case of “(R)-4-(5-(5-fluoro-2-methoxy-3-methylpyridin-4-yl)-1H-pyrazole-3-carbonyl)-N-((1r,4R)-4-hydroxy-4-(trifluoromethyl)cyclohexyl)-4-azaspiro[2.5]octane-7-carboxamide and (S)-4-(5-(5-fluoro-2-methoxy-3-methylpyridin-4-yl)-1H-pyrazole-3-carbonyl)-N-((1r,4S)-4-hydroxy-4-(trifluoromethyl)cyclohexyl)-4-azaspiro[2.5]octane-7-carboxamide [Example 493]”, the AC50 (His6-TEV-PPARγ-(234-505)) is reported as 12.6 nM and the IC50 (UM-UC-9 engineered cells) is reported as 88.6 nM.
Compound “(S)-1-(5-(5-fluoro-2-methoxypyridin-4-yl)-1H-pyrazole-3-carbonyl)-N-((1r,4S)-4-hydroxy-4-(trifluoromethyl)cyclohexyl)-2,2-dimethylpiperidine-4-carboxamide and (R)-1-(5-(5-fluoro-2-methoxypyridin-4-yl)-1H-pyrazole-3-carbonyl)-N-((1r,4R)-4-hydroxy-4-(trifluoromethyl)cyclohexyl)-2,2-dimethylpiperidine-4-carboxamide [Example 407]” has an AC50 (His6-TEV-PPARγ-(234-505)) of 30.3 nM and an IC50 (UM-UC-9 engineered cells) of 23 nM.
